# Results published in patent US6358885B1, “Substituted phenylheterocyclic herbicides” (Mississippi State University, priority 1992, dated 2002).
# Experiments:
# barley [1] = test: Test B preemergence/postemergence greenhouse plant response rating 0 to 10; format: in vivo, Hordeum vulgare; conditions: for Plant response rating, Barley: 0 to 10 scale
# Summary of the method: (§1)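 Postemergence treatment of plants two to eighteen cm tall ran alongside preemergence treatment of planted seed, each using compound in a non-phytotoxic solvent.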
# bedstraw = test: as above; format: in vivo, Galium aparine; conditions: for Plant response rating, Bedstraw: 0 to 10 scale
# Summary of the method: as §1
# chickweed [2] = test: as above; format: in vivo, Stellaria media; conditions: 0 to 10 scale
# Summary of the method: as §1
# cocklebur = test: as above; format: in vivo, Xanthium pensylvanicum; conditions: for Plant response rating, Cocklebur: 0 to 10 scale
# Summary of the method: as §1
# morningglory = test: as above; format: in vivo, Ipomoea hederacea; conditions: 0 to 10 scale
# Summary of the method: as §1
# sorghum = test: as above; format: in vivo, Sorghum bicolor; conditions: 0 to 10 scale
# Summary of the method: as §1
# soybean [3] = test: as above; format: in vivo, Glycine max; conditions: 0 to 10 scale
# Summary of the method: as §1
# sugar beet = test: as above; format: in vivo, Beta vulgaris; conditions: 0 to 10 scale
# Summary of the method: as §1
# velvetleaf = test: as above; format: in vivo, Abutilon theophrasti; conditions: 0 to 10 scale
# Summary of the method: as §1
# wild buckwheat = test: as above; format: in vivo, Polygonum convolvulus; conditions: 0 to 10 scale
# Summary of the method: as §1
# barley [4] = test: Test C preemergence/postemergence greenhouse plant response rating 0 to 100; format: in vivo, Hordeum vulgare; conditions: POSTEMERGENCE; for Plant response rating Barley Igri: 0 to 100 scale
# Summary of the method: (§2)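 Compounds in non-phytotoxic solvent went onto sandy loam before emergence (seeded one day earlier) or onto plants at the one-to-four leaf stage. Duck salad was treated via flood water (~2.5 cm, maintained) over silt loam.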
# blackgrass = test: as above; format: in vivo, Alopecurus myosuroides; conditions: POSTEMERGENCE; for Plant response rating, Blackgrass: 0 to 100 scale
# Summary of the method: as §2
# chickweed [5] = test: as above; format: in vivo, Stellaria media; conditions: POSTEMERGENCE; for Plant response rating, Chickweed: 0 to 100 scale
# Summary of the method: as §2
# pigweed = test: as above; format: in vivo, Amaranthusretroflexus; conditions: POSTEMERGENCE; for Plant response rating Pigweed: 0 to 100 scale
# Summary of the method: as §2
# rape = test: as above; format: in vivo, Brassica napus; conditions: POSTEMERGENCE; for Plant response rating, Rape: 0 to 100 scale
# Summary of the method: as §2
# ryegrass = test: as above; format: in vivo, Lolium multiflorum; conditions: POSTEMERGENCE; for Plant response rating Ryegrass: 0 to 100 scale
# Summary of the method: as §2
# soybean [6] = test: as above; format: in vivo, Glycine max; conditions: POSTEMERGENCE; for Plant response rating, Soybean: 0 to 100 scale
# Summary of the method: as §2
# umbrella sedge = test: Test C flood test plant response rating 0 to 100; format: in vivo, Cyperus difformis; conditions: for Plant response rating Umbrella sedge: flood test species listed under POSTEMERGENCE, 0 to 100 scale
# Summary of the method: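 Compounds in non-phytotoxic solvent applied preemergence to sandy loam one day after planting, postemergence at the 1–4 leaf stage, or to ~2.5 cm floodwater over silt loam.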
compound,measurement,setting,value
COC(=O)C(C)Oc1cc(-c2nn3c(c2Cl)CCCC3)c(F)cc1Cl (centres unmarked) [Compound 28],"Plant response rating (0 to 10 scale), Barley","barley [1]; POSTEMERGENCE, Rate 50 g/ha",6
same,"Plant response rating, Barley","barley [1]; POSTEMERGENCE, Rate 200 g/ha",6
same,"Plant response rating, Barley","barley [1]; PREEMERGENCE, Rate 50 g/ha",0
same,"Plant response rating, Barley","barley [1]; Rate 200 g/ha, PREEMERGENCE",0
same,"Plant response rating (0 to 10 scale), Bedstraw","bedstraw; POSTEMERGENCE, Rate 50 g/ha",9
same,"Plant response rating, Bedstraw","bedstraw; POSTEMERGENCE, Rate 200 g/ha",10
same,"Plant response rating, Bedstraw","bedstraw; PREEMERGENCE, Rate 50 g/ha",8
same,"Plant response rating, Bedstraw","bedstraw; Rate 200 g/ha, PREEMERGENCE",10
same,"Plant response rating, Chickweed","chickweed [2]; POSTEMERGENCE, Rate 200 g/ha",9
same,"Plant response rating, Chickweed","chickweed [2]; PREEMERGENCE, Rate 50 g/ha",1
same,"Plant response rating, Chickweed","chickweed [2]; Rate 200 g/ha, PREEMERGENCE",7
same,"Plant response rating (0 to 10 scale), Cocklebur","cocklebur; POSTEMERGENCE, Rate 50 g/ha",9
same,"Plant response rating, Cocklebur","cocklebur; POSTEMERGENCE, Rate 200 g/ha",10
same,"Plant response rating, Cocklebur","cocklebur; PREEMERGENCE, Rate 50 g/ha",0
same,"Plant response rating, Cocklebur","cocklebur; Rate 200 g/ha, PREEMERGENCE",1
same,"Plant response rating, Morningglory","morningglory; POSTEMERGENCE, Rate 50 g/ha",8
same,"Plant response rating, Morningglory","morningglory; POSTEMERGENCE, Rate 200 g/ha",10
same,"Plant response rating, Morningglory","morningglory; PREEMERGENCE, Rate 50 g/ha",3
same,"Plant response rating, Morningglory","morningglory; Rate 200 g/ha, PREEMERGENCE",3
same,"Plant response rating, Sorghum","sorghum; POSTEMERGENCE, Rate 50 g/ha",7
same,"Plant response rating, Sorghum","sorghum; POSTEMERGENCE, Rate 200 g/ha",9
same,"Plant response rating, Sorghum","sorghum; PREEMERGENCE, Rate 50 g/ha",0
same,"Plant response rating, Sorghum","sorghum; Rate 200 g/ha, PREEMERGENCE",0
same,"Plant response rating, Soybean","soybean [3]; POSTEMERGENCE, Rate 50 g/ha",8
same,"Plant response rating, Soybean","soybean [3]; POSTEMERGENCE, Rate 200 g/ha",9
same,"Plant response rating, Soybean","soybean [3]; PREEMERGENCE, Rate 50 g/ha",0
same,"Plant response rating, Soybean","soybean [3]; Rate 200 g/ha, PREEMERGENCE",0
same,"Plant response rating, Sugar beet","sugar beet; POSTEMERGENCE, Rate 50 g/ha",10
same,"Plant response rating, Sugar beet","sugar beet; POSTEMERGENCE, Rate 200 g/ha",10
same,"Plant response rating, Sugar beet","sugar beet; PREEMERGENCE, Rate 50 g/ha",10
same,"Plant response rating, Sugar beet","sugar beet; Rate 200 g/ha, PREEMERGENCE",10
same,"Plant response rating, Velvetleaf","velvetleaf; POSTEMERGENCE, Rate 50 g/ha",10
same,"Plant response rating, Velvetleaf","velvetleaf; POSTEMERGENCE, Rate 200 g/ha",10
same,"Plant response rating, Velvetleaf","velvetleaf; PREEMERGENCE, Rate 50 g/ha",5
same,"Plant response rating, Velvetleaf","velvetleaf; Rate 200 g/ha, PREEMERGENCE",10
same,"Plant response rating, Wild buckwheat","wild buckwheat; POSTEMERGENCE, Rate 50 g/ha",9
same,"Plant response rating, Wild buckwheat","wild buckwheat; POSTEMERGENCE, Rate 200 g/ha",10
same,"Plant response rating, Wild buckwheat","wild buckwheat; PREEMERGENCE, Rate 50 g/ha",7
same,"Plant response rating, Wild buckwheat","wild buckwheat; Rate 200 g/ha, PREEMERGENCE",7
same,Plant response rating Barley Igri,barley [4]; 62 g/ha,40
same,Plant response rating Barley Igri,barley [4]; 250 g/ha,50
same,"Plant response rating (0 to 100), Barley Igri",barley [4]; Rate 4 g/ha,20
same,"Plant response rating (0 to 100), Barley Igri",barley [4]; Rate 16 g/ha,30
same,"Plant response rating, Blackgrass",blackgrass; 62 g/ha,50
same,"Plant response rating, Blackgrass",blackgrass; 250 g/ha,70
same,"Plant response rating (0 to 100), Blackgrass",blackgrass; Rate 4 g/ha,20
same,"Plant response rating (0 to 100), Blackgrass",blackgrass; Rate 16 g/ha,30
same,"Plant response rating, Chickweed",chickweed [5]; 62 g/ha,80
same,"Plant response rating, Chickweed",chickweed [5]; 250 g/ha,80
same,"Plant response rating (0 to 100), Chickweed",chickweed [5]; Rate 4 g/ha,20
same,"Plant response rating (0 to 100), Chickweed",chickweed [5]; Rate 16 g/ha,50
same,Plant response rating Pigweed,pigweed; 62 g/ha,100
same,Plant response rating Pigweed,pigweed; 250 g/ha,100
same,"Plant response rating (0 to 100), Pigweed",pigweed; Rate 4 g/ha,100
same,"Plant response rating (0 to 100), Pigweed",pigweed; Rate 16 g/ha,100
same,"Plant response rating, Rape",rape; 62 g/ha,100
same,"Plant response rating, Rape",rape; 250 g/ha,100
same,"Plant response rating (0 to 100), Rape",rape; Rate 4 g/ha,50
same,"Plant response rating (0 to 100), Rape",rape; Rate 16 g/ha,70
same,Plant response rating Ryegrass,ryegrass; 62 g/ha,60
same,Plant response rating Ryegrass,ryegrass; 250 g/ha,70
same,"Plant response rating (0 to 100), Ryegrass",ryegrass; Rate 4 g/ha,20
same,"Plant response rating (0 to 100), Ryegrass",ryegrass; Rate 16 g/ha,40
same,"Plant response rating, Soybean",soybean [6]; 62 g/ha,70
same,"Plant response rating, Soybean",soybean [6]; 250 g/ha,80
same,"Plant response rating (0 to 100), Soybean",soybean [6]; Rate 4 g/ha,0
same,"Plant response rating (0 to 100), Soybean",soybean [6]; Rate 16 g/ha,30
same,"Plant response rating (0 to 100), Umbrella sedge","umbrella sedge; POSTEMERGENCE section, flood test, Rate 4 g/ha",0
same,"Plant response rating (0 to 100), Umbrella sedge","umbrella sedge; Rate 16 g/ha, under POSTEMERGENCE head (flood test species)",0
same,Plant response rating Umbrella sedge,umbrella sedge; 62 g/ha,20
same,Plant response rating Umbrella sedge,umbrella sedge; 250 g/ha,70
